The text below walks through data of US8895761B2, “4-phenylpyrane-3,5-diones, 4-phenylthiopyrane-3,5-diones and 2-phenylcyclohexane-1,3,5-triones as herbicides” (Syngenta Limited, priority 2007, dated 2014).

Molecules are shown by their SMILES.

What all share (assay type): in vivo
Assay [1] relates to Echinochloa crus-galli (ECHCG). The assay can be described thus: Pre-emergence herbicidal glasshouse test, Echinochloa crus-galli. Particulars: Echinochloa crus-galli, 312 h, rate 250 g/ha, evaluated after 13 days, scale 100 = total damage to plant, 0 = no damage. Here is the method: (§1) Seeds of a variety of test species were sown in standard soil in pots. After cultivation for one day (pre-emergence) or after 8 days cultivation (post-emergence) under controlled conditions in a glasshouse (at 24/16° C., day/night; 14 hours light; 65% humidity), the plants were sprayed with an aqueous spray solution derived from the formulation of the technical active ingredient in acetone/water (50:50) solution containing 0.5% Tween 20 (polyoxyethelyene sorbitan monolaurate, CAS RN 9005-64-5). The test plants were then grown in a glasshouse under controlled conditions in a glasshouse (at 24/16° C., day/night; 14 hours light; 65% humidity) and watered twice daily. After 13 days for pre and post-emergence, the test was evaluated ([…] to plant; 0=no damage to plant).
(§2) Setaria faberi (SETFA), Lolium perenne (LOLPE), Alopecurus myosuroides (ALOMY), Echinochloa crus-galli (ECHCG) and Avena fatua (AVEFA).

Assay [2] deals with Lolium perenne (LOLPE). The assay can be described thus: Post-emergence herbicidal glasshouse test, Lolium perenne. Particulars: 312 h, rate 250 g/ha, evaluated after 13 days, scale 100 = total damage to plant, 0 = no damage. Here is the method:
as §1, §2

Assay [3] has as its system Avena fatua (AVEFA). The assay can be described thus: Pre-emergence herbicidal glasshouse test, Avena fatua. Particulars: Avena fatua, 312 h, rate 250 g/ha, evaluated after 13 days, scale 100 = total damage to plant, 0 = no damage. Here is the method:
as §1, §2

For assay [4], the system named is Avena fatua (AVEFA). The assay can be described thus: Post-emergence herbicidal glasshouse test, Avena fatua. Particulars: Avena fatua, 312 h, rate 250 g/ha, evaluated after 13 days, scale 100 = total damage to plant, 0 = no damage. The method, then: as §1, §2
Assay [5] deals with Alopecurus myosuroides (ALOMY). The assay can be described thus: Pre-emergence herbicidal glasshouse test, Alopecurus myosuroides. Particulars: Alopecurus myosuroides, 312 h, rate 250 g/ha, evaluated after 13 days, scale 100 = total damage to plant, 0 = no damage. The method, then:
as §1, §2

The test system of assay [6] is Alopecurus myosuroides (ALOMY). The assay can be described thus: Post-emergence herbicidal glasshouse test, Alopecurus myosuroides. Particulars: Alopecurus myosuroides, 312 h, rate 250 g/ha, evaluated after 13 days, scale 100 = total damage to plant, 0 = no damage. The method, then:
as §1, §2

For assay [7], the system named is Echinochloa crus-galli (ECHCG). The assay can be described thus: Post-emergence herbicidal glasshouse test, Echinochloa crus-galli. Particulars: Echinochloa crus-galli, 312 h, rate 250 g/ha, evaluated after 13 days, scale 100 = total damage to plant, 0 = no damage. Here is the method: as §1, §2
The subject of assay [8] is Lolium perenne (LOLPE). The assay can be described thus: Pre-emergence herbicidal glasshouse test, Lolium perenne. Particulars: 312 h, rate 250 g/ha, evaluated after 13 days, scale 100 = total damage to plant, 0 = no damage. Here is the method: as §1, §2

What is called pest or weed control is how far the test organism was held down. Take `CCc1cc(-c2ccc(Cl)cc2)ccc1C1=C(O)C(C)(C)OC(C)(C)C1=O` [Compound A-35]: the pest or weed control at 250 g/ha in assay [1] was determined as 90%; in assay [2], 90%; in assay [3], 40%; in assay [4], 80%; in assay [5] it was 50%; in assay [6] it was 100%. In addition, the pest or weed control at 250 g/ha in assay [7] was found to be 100%; in assay [8], 80%.
For `CCc1cc(-c2ccc(C)cc2)ccc1C1=C(O)C(C)(C)OC(C)(C)C1=O` [Compound A-73], the pest or weed control at 250 g/ha was 0% in assay [1]; 60% in assay [2]; 0% in assay [3]; 0% in assay [4]; 0% in assay [5]; 30% in assay [6]. The pest or weed control at 250 g/ha in assay [7] came out at 80%; in assay [8], 0%.
In the case of `CCc1cc(-c2cc(Cl)ccc2OC)ccc1C1=C(O)C(C)(C)OC(C)(C)C1=O` [Compound A-74], the pest or weed control at 250 g/ha in assay [1] was 0%; in assay [2], 70%; in assay [3] it was 0%; in assay [4], 40%; in assay [5], 0%; in assay [6], 80%. In addition, the figures for the pest or weed control at 250 g/ha in assay [7] and in assay [8] were 100% and 0%, respectively.
Take `CCc1cc(-c2ccc(F)c(F)c2F)ccc1C1=C(O)C(C)(C)C(=O)C(C)(C)C1=O` [Compound C-8]: the pest or weed control at 250 g/ha in assay [1] came out at 30%; in assay [2], 60%; in assay [3] it was 0%; in assay [4], 10%; in assay [5], 10%; in assay [6] it was 60%. For the same compound, the pest or weed control at 250 g/ha was determined as 60% in assay [7] and 30% in assay [8].
Turning to `CCc1cc(-c2ccc(F)c(OC)c2)ccc1C1=C(O)C(C)(C)C(=O)C(C)(C)C1=O` [Compound C-3], the pest or weed control at 250 g/ha in assay [1] was 10%; in assay [2] it was 60%; in assay [3] it was 0%; in assay [4] it was 50%; in assay [5], 10%; in assay [6] it was 30%. For the same compound, the pest or weed control at 250 g/ha is 70% in assay [7] and 10% in assay [8].
For the compound `CCc1cc(-c2ccccc2)ccc1C1=C(O)C(C)(C)OC(C)(C)C1=O` [Compound A-96], the pest or weed control at 250 g/ha in assay [1] is 20%; in assay [2] it was 80%; in assay [3], 10%; in assay [4], 10%; in assay [5], 0%; in assay [6], 80%. The pest or weed control at 250 g/ha worked out at 90% in assay [7] and 0% in assay [8].
Regarding `CCc1cc(-c2ccc(F)c(F)c2)ccc1C1=C(O)C2(CCCC2)OC(C)(C)C1=O` [Compound A-125], the pest or weed control at 250 g/ha is 0% in assay [1]; 30% in assay [2]; 0% in assay [3]; 10% in assay [4]; 0% in assay [5]; 50% in assay [6]. For the same compound, the pest or weed control at 250 g/ha in assay [7] amounted to 70%; in assay [8], 0%.
`CCc1cc(-c2ccc(F)cc2)ccc1C1=C(O)C(C)OC(C)(C)C1=O` (stereo not shown) [Compound A-105]: the pest or weed control at 250 g/ha in assay [1] is 20%; in assay [2], 90%; in assay [3], 0%; in assay [4], 30%; in assay [5] it was 40%; in assay [6] it was 80%. Moreover, the results for the pest or weed control at 250 g/ha in assay [7] and in assay [8] were 90% and 40%, respectively.
Regarding `CCc1cc(-c2ccc(F)c(F)c2)ccc1C1=C(O)C(C)(CC)OC(C)(CC)C1=O` (stereo not shown) [Compound A-129], the pest or weed control at 250 g/ha turned out to be 90% in assay [1]; 80% in assay [2]; 10% in assay [3]; 70% in assay [4]; 30% in assay [5]; 90% in assay [6]. The values for the pest or weed control at 250 g/ha in assay [7] and in assay [8] were 90% and 30%, respectively.
In the case of `CCc1cc(-c2ccc(Cl)cc2Cl)ccc1C1=C(O)[C@@]2(C)CC[C@H](O2)C1=O` [Compound A-13], the pest or weed control at 250 g/ha in assay [1] turned out to be 50%; in assay [2], 100%; in assay [3], 0%; in assay [4] it was 80%; in assay [5], 0%; in assay [6], 70%. Further, the pest or weed control at 250 g/ha in assay [7] stood at 100%; in assay [8] it was 20%.
For the compound `CCc1cc(-c2cc(F)c(F)c(F)c2)ccc1C1=C(O)C(C)(C)SC(C)(C)C1=O` [Compound B-6], the pest or weed control at 250 g/ha in assay [1] is 0%; in assay [2], 80%; in assay [3], 0%; in assay [4] it was 90%; in assay [5], 50%; in assay [6], 90%. Moreover, the values for the pest or weed control at 250 g/ha in assay [7] and in assay [8] were 80% and 50%, respectively.
On to `CCc1cc(-c2ccc(F)c(OC)c2)ccc1C1=C(O)C(C)(CC)OC(C)(CC)C1=O` (stereo not shown) [Compound A-128], for which the pest or weed control at 250 g/ha in assay [1] was 40%; in assay [2], 60%; in assay [3], 0%; in assay [4], 70%; in assay [5], 10%; in assay [6], 60%. For the same compound, the pest or weed control at 250 g/ha in assay [7] worked out at 80%; in assay [8], 20%.
`CCc1cc(-c2ccc(Cl)cc2F)ccc1C1=C(O)C(C)(C)OC(C)(C)C1=O` [Compound A-51]: the pest or weed control at 250 g/ha in assay [1] came to 20%; in assay [2], 50%; in assay [3], 0%; in assay [4] it was 60%; in assay [5], 0%; in assay [6], 60%. Moreover, the pest or weed control at 250 g/ha in assay [7] was 70%; in assay [8], 0%.
Turning to `CCc1cc(-c2c(F)cc(F)cc2F)ccc1C1=C(O)C(C)(COC)OC(C)(C)C1=O` (stereo not shown) [Compound A-116], the pest or weed control at 250 g/ha amounted to 100% in assay [1]; 70% in assay [2]; 60% in assay [3]; 60% in assay [4]; 90% in assay [5]; 90% in assay [6]. For the same compound, the pest or weed control at 250 g/ha in assay [7] worked out at 100%; in assay [8], 70%.
Take `CCc1cc(-c2ccc(F)cc2)ccc1C1=C(OC(=O)C(C)(C)C)C(C)OC(C)(C)C1=O` [Compound D-9]: the pest or weed control at 250 g/ha in assay [1] is 50%; in assay [2], 80%; in assay [3], 0%; in assay [4], 10%; in assay [5], 60%; in assay [6], 70%. Further, the pest or weed control at 250 g/ha in assay [7] was determined as 80%; in assay [8] it was 90%.
Regarding `CCc1cc(-c2cc(F)c(F)c(F)c2)ccc1C1=C(O)C(C)(CC)OC(C)(CC)C1=O` (stereo not shown) [Compound A-130], the pest or weed control at 250 g/ha in assay [1] is 40%; in assay [2] it was 60%; in assay [3], 10%; in assay [4], 70%; in assay [5], 50%; in assay [6], 90%. For the same compound, the pest or weed control at 250 g/ha in assay [7] is 90%; in assay [8] it was 60%.
Take `Cc1cc(-c2ccc(F)cc2)cc(C)c1C1=C(O)[C@@]2(C)CC[C@H](O2)C1=O` [Compound A-55]: the pest or weed control at 250 g/ha in assay [1] came out at 100%; in assay [2], 100%; in assay [3] it was 70%; in assay [4], 90%; in assay [5], 70%; in assay [6], 100%. The pest or weed control at 250 g/ha in assay [7] amounted to 100%; in assay [8] it was 90%.
